We go through one substance from paper PMC8857812 (BMC Complementary Medicine and Therapies, 2022).

Assay type in all cases: in vitro ADME
For one assay, the target named is T1, CYP2C9 (Homo sapiens, UniProt P11712).
T1 construct: Phenotyping experiments were conducted by probe reactions of eight HLMs CYPs; tissue PrimeTox M10000.201800; host or cells: pooled human liver microsomes (50 donors)
The assay can be described thus: CYP2C9 inhibition in HLMs, diclofenac 4′-hydroxylation probe reaction. The conditions noted are these: HLM; even in 100 μM concentrations. The procedure: (§1) Eight positive controls were used for different CYPs: 10 μM furafylline for CYP1A2, 50 μM clomethiazole for CYP2E1, 50 μM tranylcypromine for CYP2C19, 1 μM ketoconazole for CYP3A4, 10 μM tranylcypromine for CYP2A6, 5 μM montelukast for CYP2C8, 10 μM sulfaphenazole for CYP2C9, and 10 μM quinidine for CYP2D6. […] The reaction was initiated by adding a newly prepared NADPH generating system, maintained at 37 °C for 30 min, and then terminated by the addition of acetonitrile. The incubation conditions were optimized to assure that the reaction was linear with time and protein concentration. Blank HLMs were incubated as Control. The supernatant was obtained after centrifugation at 14000 r/min, 15 min for LC-MS analysis.
(§2) The quantification for the corresponding metabolites was performed using a validated single LC/MS/MS run at an Ultimate 3000 HPLC system and a TSQ Quantis™ triple quadrupole mass spectrometer equipped with a heated electrospray ionization (ESI) source (Thermo Fisher, USA). The mobile phase was consisted of solvent A (0.01% acetic acid and 5 mmol/L ammonium acetate) and solvent B (methanol-acetonitrile,1:1, v/v) according to the following gradient: 0-0.5 min, B 2%; 0.5-4.0 min, B 2 to 45%; 4.0-6.5 min, B 45 to 60%; 6.5-6.8 min, B 60 to 80%; 6.8-7.2 min, B 80%; 7.2-7.5 min, B 80 to 2%; 7.5-10.0 min, B 2%. […]

In assay [1] the target is T2, CYP2C19 (Homo sapiens, UniProt P33261).
T2 construct: tissue PrimeTox M10000.201800; host or cells: pooled human liver microsomes (50 donors)
The assay can be described thus: CYP2C19 inhibition in HLMs, S-mephenytoin 4-hydroxylation probe reaction. The note with it: 100 μM ECH, p < 0.001 vs Control. The procedure:
as §1
(§3) The quantification for the corresponding metabolites was performed using a validated single LC/MS/MS run at an Ultimate 3000 HPLC system and a TSQ Quantis™ triple quadrupole mass spectrometer equipped with a heated electrospray ionization (ESI) source (Thermo Fisher, USA). […]
(§4) The relative enzyme activity was observed by High-Performance Liquid Chromatography (HPLC)-Mass Spectrometry (MS). IC50 values were calculated by Graphpad Prism 7.

Assay [2] deals with T2, CYP2C19. The experiment in a line: Assessment of time-dependent inhibition of CYP2C19 in HLMs. The note with it: 10 μM ECH; incubation 0-30 min. The procedure:
(§5) After the first incubation, an aliquot (20 μL) was transferred to another incubation tube, added probe substrates and start the reaction by an NADPH-generating system. After incubation for 0, 5, 10, 15, and 30 min, the corresponding metabolites were determined by HPLC-MS.

In a further assay the target is T3, CYP2A6 (Homo sapiens, UniProt P11509).
T3 construct: tissue PrimeTox M10000.201800; host or cells: pooled human liver microsomes (50 donors)
The assay can be described thus: CYP2A6 inhibition in HLMs, coumarin 7-hydroxylation probe reaction. The conditions noted are these: HLM; even in 100 μM concentrations. On the procedure: as §1, §2

The target in assay [3] is T4, CYP3A4 (Homo sapiens, UniProt P08684).
T4 construct: tissue PrimeTox M10000.201800; host or cells: pooled human liver microsomes (50 donors)
The experiment in a line: Time-dependent inhibition and inactivation kinetics of CYP3A4 in HLMs. The procedure:
as §5
CYPs time-dependent inhibition: Kobs=KinactI/KI+I

Assay [4] addresses T4, CYP3A4. The experiment in a line: CYP3A4 inhibition in HLMs, testosterone 6β-hydroxylation probe reaction. The note with it: 100 μM ECH, p < 0.001 vs Control. On the procedure:
as §1, §3, §4

Assay [5] addresses T2, CYP2C19. The assay can be described thus: Inhibition kinetics of CYP2C19 in HLMs (Lineweaver-Burk plots). The source says:
(§6) A one enzyme Michaelis Menten model with competitive substrate inhibition: V=VmaxS/Km1+I/KI+Sa
(§7) Michaelis-Menten model with uncompetitive substrate inhibition: V=VmaxS/Km+S1+I/KIKi

Assay [6] addresses T5, CYP2E1 (Homo sapiens, UniProt P05181).
T5 construct: tissue PrimeTox M10000.201800; host or cells: pooled human liver microsomes (50 donors)
The assay can be described thus: Assessment of time-dependent inhibition of CYP2E1 in HLMs. The conditions noted are these: 20 μM ECH; incubation 0-30 min. On the procedure:
as §5

Assay [7] deals with T5, CYP2E1. The experiment in a line: Inhibition kinetics of CYP2E1 in HLMs (Lineweaver-Burk plots).
From the text: as §6, §7

Another assay concerns the target T6, CYP2D6 (Homo sapiens, UniProt P10635).
T6 construct: Phenotyping experiments were conducted by probe reactions of eight HLMs CYPs; tissue PrimeTox M10000.201800; host or cells: pooled human liver microsomes (50 donors)
The assay can be described thus: CYP2D6 inhibition in HLMs, dextromethorphan O-demethylation probe reaction. The conditions noted are these: HLM; even in 100 μM concentrations. On the procedure:
as §1, §2

The target in assay [8] is T5, CYP2E1. The experiment in a line: CYP2E1 inhibition in HLMs, chlorzoxazone 6-hydroxylation probe reaction. The conditions noted are these: 100 μM ECH, p < 0.001 vs Control. The procedure:
as §1, §3, §4

[9] abbreviates: pre-incubation 0-30 min, ECH 0-50 μM, estimated from curve fitting of Kobs.

T5 sequence (P05181 whole entry): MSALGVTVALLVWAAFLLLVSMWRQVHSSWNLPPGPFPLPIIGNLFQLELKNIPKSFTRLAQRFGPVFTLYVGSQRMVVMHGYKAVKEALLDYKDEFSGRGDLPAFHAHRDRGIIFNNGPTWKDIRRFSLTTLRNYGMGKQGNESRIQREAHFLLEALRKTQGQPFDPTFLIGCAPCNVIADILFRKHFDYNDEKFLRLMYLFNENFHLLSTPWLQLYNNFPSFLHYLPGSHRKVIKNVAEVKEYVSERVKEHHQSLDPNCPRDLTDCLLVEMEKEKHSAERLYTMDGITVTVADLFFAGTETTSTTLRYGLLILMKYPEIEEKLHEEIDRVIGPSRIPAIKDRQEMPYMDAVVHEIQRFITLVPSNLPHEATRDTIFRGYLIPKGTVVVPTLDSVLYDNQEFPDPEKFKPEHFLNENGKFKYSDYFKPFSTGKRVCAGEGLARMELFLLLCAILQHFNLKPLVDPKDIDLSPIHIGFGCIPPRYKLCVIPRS
T2 sequence (P33261 whole entry): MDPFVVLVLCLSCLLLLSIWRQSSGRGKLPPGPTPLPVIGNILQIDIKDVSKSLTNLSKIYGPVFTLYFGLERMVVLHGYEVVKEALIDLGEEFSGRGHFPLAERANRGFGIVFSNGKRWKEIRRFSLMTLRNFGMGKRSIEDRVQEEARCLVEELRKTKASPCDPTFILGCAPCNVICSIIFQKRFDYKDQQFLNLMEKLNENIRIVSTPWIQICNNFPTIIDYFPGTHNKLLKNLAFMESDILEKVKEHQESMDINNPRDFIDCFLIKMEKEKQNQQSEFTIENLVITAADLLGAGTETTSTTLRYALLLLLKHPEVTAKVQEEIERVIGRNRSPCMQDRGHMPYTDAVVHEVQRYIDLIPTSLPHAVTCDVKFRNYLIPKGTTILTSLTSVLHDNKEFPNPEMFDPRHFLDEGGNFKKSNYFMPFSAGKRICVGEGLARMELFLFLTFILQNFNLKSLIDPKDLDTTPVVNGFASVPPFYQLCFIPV
T4 sequence (P08684 whole entry): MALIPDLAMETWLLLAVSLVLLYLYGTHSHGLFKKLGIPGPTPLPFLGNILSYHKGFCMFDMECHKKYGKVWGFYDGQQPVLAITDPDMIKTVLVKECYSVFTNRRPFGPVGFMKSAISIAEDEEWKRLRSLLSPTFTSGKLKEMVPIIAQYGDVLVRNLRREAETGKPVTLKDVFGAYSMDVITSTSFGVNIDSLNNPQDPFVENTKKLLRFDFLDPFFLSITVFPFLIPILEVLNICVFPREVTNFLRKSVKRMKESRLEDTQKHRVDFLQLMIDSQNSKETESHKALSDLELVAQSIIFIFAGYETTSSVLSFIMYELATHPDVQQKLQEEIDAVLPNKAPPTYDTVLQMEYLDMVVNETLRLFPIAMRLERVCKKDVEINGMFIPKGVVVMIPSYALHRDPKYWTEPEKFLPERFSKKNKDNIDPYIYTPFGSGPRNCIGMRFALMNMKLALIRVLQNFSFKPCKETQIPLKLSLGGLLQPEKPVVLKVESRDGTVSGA
T1 sequence (P11712 whole entry): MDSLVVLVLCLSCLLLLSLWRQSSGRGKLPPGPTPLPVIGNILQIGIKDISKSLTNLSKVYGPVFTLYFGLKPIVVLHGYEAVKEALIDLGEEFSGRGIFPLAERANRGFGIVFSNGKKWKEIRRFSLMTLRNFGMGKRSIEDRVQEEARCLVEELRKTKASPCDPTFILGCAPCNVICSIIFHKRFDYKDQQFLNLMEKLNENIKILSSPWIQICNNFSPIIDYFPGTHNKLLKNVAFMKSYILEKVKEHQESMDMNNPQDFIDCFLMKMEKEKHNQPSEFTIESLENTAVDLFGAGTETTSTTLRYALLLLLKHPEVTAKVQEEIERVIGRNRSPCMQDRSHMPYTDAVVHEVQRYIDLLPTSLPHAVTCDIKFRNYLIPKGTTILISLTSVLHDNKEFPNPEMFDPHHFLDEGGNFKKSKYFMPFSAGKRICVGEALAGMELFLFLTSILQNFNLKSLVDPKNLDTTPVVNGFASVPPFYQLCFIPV
T3 sequence (P11509 whole entry): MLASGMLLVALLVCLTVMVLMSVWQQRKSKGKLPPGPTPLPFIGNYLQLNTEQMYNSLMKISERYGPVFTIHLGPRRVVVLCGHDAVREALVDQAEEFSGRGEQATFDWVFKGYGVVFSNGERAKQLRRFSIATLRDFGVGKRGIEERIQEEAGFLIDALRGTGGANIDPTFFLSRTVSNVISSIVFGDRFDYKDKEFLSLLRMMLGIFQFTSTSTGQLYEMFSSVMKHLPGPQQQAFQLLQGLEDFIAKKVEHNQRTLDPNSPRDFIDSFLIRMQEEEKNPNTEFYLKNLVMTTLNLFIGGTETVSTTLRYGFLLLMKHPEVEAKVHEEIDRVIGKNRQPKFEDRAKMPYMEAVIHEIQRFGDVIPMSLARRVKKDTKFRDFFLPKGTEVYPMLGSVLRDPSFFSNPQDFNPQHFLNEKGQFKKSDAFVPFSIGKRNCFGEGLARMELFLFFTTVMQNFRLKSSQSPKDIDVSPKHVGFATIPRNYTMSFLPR
T6 sequence (P10635 whole entry): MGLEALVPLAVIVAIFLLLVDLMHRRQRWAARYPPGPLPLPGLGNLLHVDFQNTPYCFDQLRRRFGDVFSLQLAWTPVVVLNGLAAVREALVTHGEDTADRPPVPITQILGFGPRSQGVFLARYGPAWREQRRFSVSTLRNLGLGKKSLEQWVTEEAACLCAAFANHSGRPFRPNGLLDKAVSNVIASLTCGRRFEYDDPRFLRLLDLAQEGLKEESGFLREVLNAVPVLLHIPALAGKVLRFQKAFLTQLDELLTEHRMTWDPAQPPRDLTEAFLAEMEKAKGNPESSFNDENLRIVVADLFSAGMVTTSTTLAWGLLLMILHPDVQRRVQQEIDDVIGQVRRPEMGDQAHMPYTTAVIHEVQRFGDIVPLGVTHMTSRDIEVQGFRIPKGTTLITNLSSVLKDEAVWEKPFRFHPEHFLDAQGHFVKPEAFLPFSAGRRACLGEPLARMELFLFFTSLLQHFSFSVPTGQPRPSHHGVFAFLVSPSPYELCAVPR

Turning to Echinacoside, on CYP2C9, the “inhibition of CYP2C9” value is recorded as “no significant inhibition”. On CYP2C19 [1], the “effect on relative activity of CYP2C19” value is recorded as “significant decrease”. Also, the “time dependence of CYP2C19 inhibition” value at CYP2C19 [2] is “time-independent”. The “inhibition of CYP2A6” value against CYP2A6 is “no significant inhibition”. Moreover, the “time dependence of CYP3A4 inhibition” value at CYP3A4 [3] (50 μM ECH, incubation 0-30 min) is listed as “time-dependent”. At CYP3A4 [3] (setting [9]), the “KI (time-dependent inhibition of CYP3A4)” value was 6.63 µM and the “Kinact (time-dependent inhibition of CYP3A4)” value was 0.066 min^− 1. For the same substance, the “effect on relative activity of CYP3A4” value on CYP3A4 [4] was “significant decrease”. For the same substance, the “mode of inhibition of CYP2C19” value on CYP2C19 [5] is listed as “competitive type”. Besides, the “time dependence of CYP2E1 inhibition” value at CYP2E1 [6] was “time-independent”. Further, the “α value for CYP2E1” value at CYP2E1 [7] is given as “not 1”. Also, the “mode of inhibition of CYP2E1” value on CYP2E1 [7] (Lineweaver-Burk plots) was “mixed type”. For the same substance, at CYP2D6, the “inhibition of CYP2D6” value is recorded as “no significant inhibition”. Moreover, the “effect on relative activity of CYP2E1” value on CYP2E1 [8] is given as “significant decrease”.
